Laboratory results from ChEMBL document CHEMBL5518230, “Identification of a Novel Selective CDK9 Inhibitor for the Treatment of CRC: Design, Synthesis, and Biological Activity Evaluation” (J Med Chem, 2024).
Active and inactive are the calls of the source. No cut-off for these calls is given here.

Experiments:
CDK9/cyclin T1 = CDK9/cyclin T1 (Homo sapiens, UniProt P50750); test: Inhibition of CDK9/Cyclin T1 (unknown origin) using PDKtide substrate incubated for 60 mins by ADP-Glo kinase assay; format: protein-complex assay
Sequence of CDK9/cyclin T1 (O60563 whole entry): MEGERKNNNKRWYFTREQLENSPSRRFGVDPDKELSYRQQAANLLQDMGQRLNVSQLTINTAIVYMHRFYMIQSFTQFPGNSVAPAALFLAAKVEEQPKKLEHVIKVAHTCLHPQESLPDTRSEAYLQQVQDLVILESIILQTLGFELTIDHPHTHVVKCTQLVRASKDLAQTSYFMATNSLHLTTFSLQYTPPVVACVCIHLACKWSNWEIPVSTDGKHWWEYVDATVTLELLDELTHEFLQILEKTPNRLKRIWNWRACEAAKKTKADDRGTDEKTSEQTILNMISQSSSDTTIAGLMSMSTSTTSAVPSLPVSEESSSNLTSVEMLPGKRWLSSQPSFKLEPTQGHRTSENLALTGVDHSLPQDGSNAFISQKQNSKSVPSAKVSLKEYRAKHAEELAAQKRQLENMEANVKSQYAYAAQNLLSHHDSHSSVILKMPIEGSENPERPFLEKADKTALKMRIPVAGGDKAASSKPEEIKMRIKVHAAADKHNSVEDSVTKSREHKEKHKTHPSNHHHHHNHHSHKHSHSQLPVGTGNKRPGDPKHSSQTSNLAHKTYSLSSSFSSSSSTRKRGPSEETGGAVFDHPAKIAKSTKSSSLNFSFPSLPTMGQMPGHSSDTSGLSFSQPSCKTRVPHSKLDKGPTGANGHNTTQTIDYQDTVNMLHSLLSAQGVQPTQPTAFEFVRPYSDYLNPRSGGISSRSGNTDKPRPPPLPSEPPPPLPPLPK
Sequence of CDK9/cyclin T1 (P50750 whole entry): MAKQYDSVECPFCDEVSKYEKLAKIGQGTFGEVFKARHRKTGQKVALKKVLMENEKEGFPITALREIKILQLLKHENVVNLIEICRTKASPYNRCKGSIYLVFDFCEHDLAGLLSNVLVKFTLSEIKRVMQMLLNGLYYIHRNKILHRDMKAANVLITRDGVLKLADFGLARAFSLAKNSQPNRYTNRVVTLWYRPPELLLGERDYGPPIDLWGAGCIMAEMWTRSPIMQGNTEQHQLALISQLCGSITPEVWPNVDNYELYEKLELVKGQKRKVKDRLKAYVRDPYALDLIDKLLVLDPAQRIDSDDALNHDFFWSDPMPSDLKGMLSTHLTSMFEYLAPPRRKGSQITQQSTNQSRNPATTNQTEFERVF

[1] = molecular target: CDK9/cyclin T1 (Homo sapiens) (UniProt O60563+P50750); test: Inhibition of CDK9/Cyclin T1 (unknown origin) using PDKtide substrate at 500 nM incubated for 60 mins by ADP-Glo kinase assay relative to control; format: protein-complex assay
CYP2C19 = CYP2C19 (Homo sapiens, UniProt P33261); test: Inhibition of CYP2C19 in human liver microsomes using benzylnirvanol as […] at 10 uM preincubated for 10 mins followed by NADPH addition measured after 15 mins by LC-MS/MS analysis relative to control; format: ADME, Microsome; conditions: probe benzylnirvanol, time 25 min
[2] = Half life in human liver microsomes at 100 uM measured upto 60 mins in presence of NADPH by LC-MS/MS analysis; format: ADME, Microsome
[3] = Half life in human plasma measured upto 120 mins by LC-MS/MS analysis; format: ADME, cell-free
[4] = Stability in human liver microsomes assessed as compound remaining at 100 uM measured upto 60 mins in presence of NADPH by LC-MS/MS analysis; format: ADME, Microsome; conditions: read-out: Stability
[5] = molecular target: Cyclin-dependent kinase 2 (Homo sapiens, UniProt P24941); test: Inhibition of CDK2 (unknown origin)
[6] = molecular target: Cyclin-dependent kinase 5 (Homo sapiens, UniProt Q00535); test: Inhibition of CDK5 (unknown origin)
[7] = Intrinsic clearance in human liver microsomes at 100 uM measured upto 60 mins in presence of NADPH by LC-MS/MS analysis; format: ADME, Microsome; conditions: 1 h
CYP2D6 = CYP2D6 (Homo sapiens, UniProt P10635); test: Inhibition of CYP2D6 in human liver microsomes using quinidine as […] at 10 uM preincubated for 10 mins followed by NADPH addition measured after 15 mins by LC-MS/MS analysis relative to control; format: ADME, Microsome; conditions: time 25 min
Sequence of CYP2D6 (P10635 whole entry): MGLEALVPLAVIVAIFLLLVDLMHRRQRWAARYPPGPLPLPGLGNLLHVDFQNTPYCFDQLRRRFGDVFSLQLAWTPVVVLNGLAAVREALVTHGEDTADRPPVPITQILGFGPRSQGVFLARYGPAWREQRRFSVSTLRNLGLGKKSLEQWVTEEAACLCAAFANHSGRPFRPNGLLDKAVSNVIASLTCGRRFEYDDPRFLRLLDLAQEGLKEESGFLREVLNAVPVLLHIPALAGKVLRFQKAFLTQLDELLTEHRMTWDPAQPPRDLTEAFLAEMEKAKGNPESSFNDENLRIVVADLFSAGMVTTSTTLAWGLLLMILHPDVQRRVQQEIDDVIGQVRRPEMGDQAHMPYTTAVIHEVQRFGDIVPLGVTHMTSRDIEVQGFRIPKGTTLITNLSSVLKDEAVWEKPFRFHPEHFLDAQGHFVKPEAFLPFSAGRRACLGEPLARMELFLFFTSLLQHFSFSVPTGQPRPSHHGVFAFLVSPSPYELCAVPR

CYP1A2 = molecular target: T1, CYP1A2 (Homo sapiens, UniProt P05177); test: Inhibition of CYP1A2 in human liver microsomes using alpha-naphthoflavone as […] at 10 uM preincubated for 10 mins followed by NADPH addition measured after 15 mins by LC-MS/MS analysis relative to control; format: ADME, Microsome; conditions: time 25 min
T1 sequence (P05177 whole entry): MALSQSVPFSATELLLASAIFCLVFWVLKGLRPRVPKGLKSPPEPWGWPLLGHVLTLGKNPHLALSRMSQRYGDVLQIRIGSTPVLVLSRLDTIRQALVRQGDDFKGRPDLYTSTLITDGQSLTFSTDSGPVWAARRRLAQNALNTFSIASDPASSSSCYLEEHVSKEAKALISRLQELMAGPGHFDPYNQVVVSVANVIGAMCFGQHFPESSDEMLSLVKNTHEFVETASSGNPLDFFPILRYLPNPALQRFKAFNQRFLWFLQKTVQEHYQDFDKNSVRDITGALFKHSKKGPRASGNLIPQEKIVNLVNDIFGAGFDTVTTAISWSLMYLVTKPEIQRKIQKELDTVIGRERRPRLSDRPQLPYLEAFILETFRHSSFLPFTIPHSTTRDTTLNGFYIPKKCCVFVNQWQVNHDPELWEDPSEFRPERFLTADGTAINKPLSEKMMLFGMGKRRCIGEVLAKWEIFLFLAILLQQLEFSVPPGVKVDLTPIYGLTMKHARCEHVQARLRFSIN

CYP2C9 = CYP2C9 (Homo sapiens, UniProt P11712); test: Inhibition of CYP2C9 in human liver microsomes using sulfaphenazole as […] at 10 uM preincubated for 10 mins followed by NADPH addition measured after 15 mins by LC-MS/MS analysis relative to control; format: ADME, Microsome; conditions: probe sulfaphenazole, time 25 min
Sequence of CYP2C9 (P11712 whole entry): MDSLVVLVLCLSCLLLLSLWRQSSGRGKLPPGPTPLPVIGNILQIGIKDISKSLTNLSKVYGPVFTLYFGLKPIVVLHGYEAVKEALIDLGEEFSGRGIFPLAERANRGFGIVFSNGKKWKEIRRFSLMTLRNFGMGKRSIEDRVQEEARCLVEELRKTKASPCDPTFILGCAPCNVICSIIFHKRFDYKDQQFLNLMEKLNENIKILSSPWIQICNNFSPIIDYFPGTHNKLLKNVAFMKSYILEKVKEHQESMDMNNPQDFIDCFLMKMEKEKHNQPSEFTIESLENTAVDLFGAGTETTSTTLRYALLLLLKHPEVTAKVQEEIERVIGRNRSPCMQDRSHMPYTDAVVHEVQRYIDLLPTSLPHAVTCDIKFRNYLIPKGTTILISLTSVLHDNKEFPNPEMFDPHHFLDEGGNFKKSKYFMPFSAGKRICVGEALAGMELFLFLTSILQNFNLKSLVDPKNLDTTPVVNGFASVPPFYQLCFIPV

[8] = molecular target: Cyclin-dependent kinase 6 (Homo sapiens, UniProt Q00534); test: Inhibition of CDK6 (unknown origin)
[9] = Intrinsic microsomal clearance in human liver microsomes at 100 uM measured upto 60 mins in presence of NADPH by LC-MS/MS analysis; format: ADME, Microsome; conditions: read-out: CLH
HCT-116 [10] = test: Growth inhibition of human HCT-116 cells incubated for 48 hrs by CCK-8 assay; format: functional
[11] = molecular target: Cyclin-dependent kinase 7 (Homo sapiens, UniProt P50613); test: Inhibition of CDK7 (unknown origin)
[12] = molecular target: Cyclin-dependent kinase 9 (Homo sapiens, UniProt P50750); test: Inhibition of CDK9 (unknown origin)
Sequence of Cyclin-dependent kinase 9 (P50750 whole entry): as the sequence (P50750 whole entry) above

[13] = molecular target: Cyclin-dependent kinase 4 (Homo sapiens, UniProt P11802); test: Inhibition of CDK4 (unknown origin)
CYP3A4 = CYP3A4 (Homo sapiens, UniProt P08684); test: Inhibition of CYP3A4 in human liver microsomes using ketoconazole as […] at 10 uM preincubated for 10 mins followed by NADPH addition measured after 15 mins by LC-MS/MS analysis relative to control; format: ADME, Microsome; conditions: probe ketoconazole, time 25 min
Sequence of CYP3A4 (P08684 whole entry): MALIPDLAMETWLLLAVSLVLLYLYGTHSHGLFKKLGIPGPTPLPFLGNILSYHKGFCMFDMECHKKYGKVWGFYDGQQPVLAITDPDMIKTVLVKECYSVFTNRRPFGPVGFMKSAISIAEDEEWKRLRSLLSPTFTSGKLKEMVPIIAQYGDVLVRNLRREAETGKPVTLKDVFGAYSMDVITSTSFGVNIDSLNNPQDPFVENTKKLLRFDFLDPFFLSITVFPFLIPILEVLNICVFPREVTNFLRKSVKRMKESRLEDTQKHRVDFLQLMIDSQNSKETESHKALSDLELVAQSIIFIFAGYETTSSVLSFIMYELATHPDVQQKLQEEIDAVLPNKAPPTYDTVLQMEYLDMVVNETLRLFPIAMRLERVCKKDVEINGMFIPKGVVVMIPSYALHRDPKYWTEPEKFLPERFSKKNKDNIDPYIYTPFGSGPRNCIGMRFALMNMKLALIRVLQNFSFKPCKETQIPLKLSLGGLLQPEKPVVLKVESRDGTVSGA

[14] = molecular target: Cyclin-dependent kinase 8 (Homo sapiens, UniProt P49336); test: Inhibition of CDK8 (unknown origin)
Sequence of Cyclin-dependent kinase 8 (P49336 whole entry): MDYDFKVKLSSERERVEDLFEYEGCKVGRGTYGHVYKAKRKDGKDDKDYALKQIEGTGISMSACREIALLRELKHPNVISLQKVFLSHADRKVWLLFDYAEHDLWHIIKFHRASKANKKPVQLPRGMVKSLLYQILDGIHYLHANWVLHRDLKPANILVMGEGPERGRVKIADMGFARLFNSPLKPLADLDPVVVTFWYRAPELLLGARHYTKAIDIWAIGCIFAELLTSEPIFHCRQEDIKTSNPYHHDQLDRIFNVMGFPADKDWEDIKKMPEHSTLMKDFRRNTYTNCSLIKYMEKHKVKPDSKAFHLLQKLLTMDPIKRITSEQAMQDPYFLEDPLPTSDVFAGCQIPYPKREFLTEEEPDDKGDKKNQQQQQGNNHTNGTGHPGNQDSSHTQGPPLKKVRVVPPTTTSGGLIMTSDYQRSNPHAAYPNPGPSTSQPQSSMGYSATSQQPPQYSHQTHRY

HT-29 = test: Growth inhibition of human HT-29 cells incubated for 48 hrs by CCK-8 assay; format: functional
[15] = molecular target: Cyclin-dependent kinase 12 (Homo sapiens, UniProt Q9NYV4); test: Inhibition of CDK12 (unknown origin)
Sequence of Cyclin-dependent kinase 12 (Q9NYV4 whole entry): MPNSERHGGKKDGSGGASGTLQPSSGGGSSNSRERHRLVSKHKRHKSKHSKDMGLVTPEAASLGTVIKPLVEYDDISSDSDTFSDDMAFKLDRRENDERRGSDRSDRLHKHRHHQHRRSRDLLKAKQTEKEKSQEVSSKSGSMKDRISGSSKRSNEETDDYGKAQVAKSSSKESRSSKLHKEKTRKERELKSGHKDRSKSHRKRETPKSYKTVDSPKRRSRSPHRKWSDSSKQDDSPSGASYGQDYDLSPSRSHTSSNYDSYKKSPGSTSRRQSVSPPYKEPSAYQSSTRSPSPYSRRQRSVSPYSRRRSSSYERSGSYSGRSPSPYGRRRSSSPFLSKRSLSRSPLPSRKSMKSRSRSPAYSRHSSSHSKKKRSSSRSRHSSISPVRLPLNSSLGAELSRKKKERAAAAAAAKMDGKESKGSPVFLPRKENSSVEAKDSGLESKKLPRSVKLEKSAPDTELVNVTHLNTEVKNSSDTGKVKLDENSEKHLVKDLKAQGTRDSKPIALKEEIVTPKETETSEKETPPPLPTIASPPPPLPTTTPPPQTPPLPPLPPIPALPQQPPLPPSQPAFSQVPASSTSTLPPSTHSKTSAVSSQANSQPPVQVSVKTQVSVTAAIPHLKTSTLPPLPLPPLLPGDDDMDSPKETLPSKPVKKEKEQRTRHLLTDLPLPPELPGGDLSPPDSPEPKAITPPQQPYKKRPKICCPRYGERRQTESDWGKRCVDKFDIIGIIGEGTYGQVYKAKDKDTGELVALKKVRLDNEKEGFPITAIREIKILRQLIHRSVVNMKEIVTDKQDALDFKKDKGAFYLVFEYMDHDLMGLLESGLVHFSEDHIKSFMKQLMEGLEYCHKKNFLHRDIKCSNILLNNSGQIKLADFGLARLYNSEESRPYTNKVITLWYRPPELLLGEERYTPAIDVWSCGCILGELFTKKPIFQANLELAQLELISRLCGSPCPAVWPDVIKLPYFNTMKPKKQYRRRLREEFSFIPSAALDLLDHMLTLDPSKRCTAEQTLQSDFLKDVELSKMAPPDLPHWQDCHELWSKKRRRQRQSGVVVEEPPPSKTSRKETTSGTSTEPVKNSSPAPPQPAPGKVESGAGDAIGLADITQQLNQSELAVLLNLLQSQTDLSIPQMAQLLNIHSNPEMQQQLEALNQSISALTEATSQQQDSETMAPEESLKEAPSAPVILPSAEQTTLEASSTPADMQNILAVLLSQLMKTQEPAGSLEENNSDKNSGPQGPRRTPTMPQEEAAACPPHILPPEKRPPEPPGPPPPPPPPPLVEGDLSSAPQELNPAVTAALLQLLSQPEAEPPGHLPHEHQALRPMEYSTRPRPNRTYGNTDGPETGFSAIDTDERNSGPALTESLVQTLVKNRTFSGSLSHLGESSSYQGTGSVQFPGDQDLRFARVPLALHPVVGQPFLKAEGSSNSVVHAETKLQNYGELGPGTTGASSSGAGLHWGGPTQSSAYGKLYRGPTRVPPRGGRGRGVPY

[16] = molecular target: Cyclin-dependent kinase 1 (Homo sapiens, UniProt P06493); test: Inhibition of CDK1 (unknown origin)
Sequence of Cyclin-dependent kinase 1 (P06493 whole entry): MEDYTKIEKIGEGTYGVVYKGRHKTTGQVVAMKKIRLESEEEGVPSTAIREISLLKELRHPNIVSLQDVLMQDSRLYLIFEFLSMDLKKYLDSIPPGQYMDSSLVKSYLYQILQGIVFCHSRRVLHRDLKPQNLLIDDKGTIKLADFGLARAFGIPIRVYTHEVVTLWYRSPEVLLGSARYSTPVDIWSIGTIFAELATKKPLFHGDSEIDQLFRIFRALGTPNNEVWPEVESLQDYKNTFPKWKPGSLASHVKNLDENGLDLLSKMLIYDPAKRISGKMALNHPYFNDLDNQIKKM

[17] = molecular target: CDK1/Cyclin E (Homo sapiens) (UniProt P06493+P24864); test: Inhibition of CDK1/Cyclin E1 (unknown origin) at 100 nM; format: protein-complex assay
[18] = molecular target: CDK2/Cyclin A2 (Homo sapiens) (UniProt P24941+P20248); test: Inhibition of CDK2/Cyclin A2 (unknown origin) at 100 nM; format: protein-complex assay
Homo sapiens = organism: Homo sapiens; test: Inhibition of CDK1/Cyclin A2 (unknown origin) at 100 nM
[19] = molecular target: Cyclin-dependent kinase 2/cyclin E1 (Homo sapiens) (UniProt P24864+P24941); test: Inhibition of CDK2/Cyclin E1 (unknown origin) at 100 nM; format: protein-complex assay
HCT-116 [20] = test: Inhibition of colony formation in human HCT-116 cells assessed as reduction in colony number incubated for 14 days by crystal violet staining assay; format: functional, cell-based; conditions: time 14.0 day
HCT-116 [21] = test: Antitumor activity against human HCT-116 cells xenografted in BALB/c mouse assessed as tumor growth inhibition at 50 mg/kg,po administrated once daily for 3 weeks; format: functional, organism-based

SMILES	IC50 (CDK9/cyclin T1)	inhibition [1]	GI50 (HCT-116 [10])	GI50 (HT-29)	further results
CC(C)(C)n1nnc2ccc(-c3ccnc(Nc4ccc(C(=O)N5CCOCC5)cn4)c3)cc21	9.73 nM	98.9%	–	–	–
CC(C)n1nnc2ccc(-c3ccnc(Nc4ccc(C(=O)N5CCOCC5)cc4C(F)(F)F)c3)cc21	–	11.4%	–	–	–
CC(C)(C)n1nnc2ccc(-c3ccnc(Nc4ccc(C(=O)N5CCOCC5)cc4)c3)cc21	–	73.5%	–	–	–
O=C(c1ccc(Nc2cc(-c3ccc4nnn(C5CCCC5)c4c3)ccn2)nc1)N1CCOCC1	9.92 nM	99.7%	–	–	–
O=C(c1ccc(Nc2cc(-c3ccc4nnn(C5CCCC5)c4c3)ccn2)cc1)N1CCOCC1	–	81.2%	–	–	–
CC(C)n1nnc2ccc(-c3ccnc(Nc4cc(C(=O)N5CCOCC5)ccn4)c3)cc21	3.06 nM	–	70 nM	650 nM	–
Cc1ncc(-c2ccnc(Nc3ccc(S(C)(=O)=O)cc3)n2)n1C(C)C [AZD-5438]	–	–	450 nM	960 nM	inhibition (HCT-116 [20]): Dose-Dependent Effect; Activity (HCT-116 [21]): Active
CC(C)n1nnc2ccc(-c3ccnc(Nc4cc(C(=O)N5CCNC(=O)C5)ccn4)c3)cc21	1.94 nM	–	520 nM	> 2000 nM	–
CC(C)(C)n1nnc2ccc(-c3ccnc(Nc4ccc(C(=O)N5CCOCC5)cc4C(F)(F)F)c3)cc21	–	6.51%	–	–	–
O=C(c1ccc(Nc2cc(-c3ccc4nnn(C5CCCC5)c4c3)ccn2)c(F)c1)N1CCOCC1	–	12.9%	–	–	–
COc1cc(C(=O)N2CCOCC2)ccc1Nc1cc(-c2ccc3nnn(C(C)C)c3c2)ccn1	–	41.7%	–	–	–
CC(C)n1nnc2ccc(-c3ccnc(Nc4ccc(C(=O)N5CCOCC5)cc4)c3)cc21	–	83%	–	–	–
O=C(c1ccc(Nc2cc(-c3ccc4nnn(C5CCCCC5)c4c3)ccn2)c(F)c1)N1CCOCC1	–	41.1%	–	–	–
CC(C)(C)n1nnc2ccc(-c3ccnc(Nc4ccc(C(=O)N5CCOCC5)cc4F)c3)cc21	–	50.3%	–	–	–
COc1cc(C(=O)N2CCOCC2)ccc1Nc1cc(-c2ccc3nnn(C(C)(C)C)c3c2)ccn1	–	28.1%	–	–	–
COc1cc(C(=O)N2CCOCC2)ccc1Nc1cc(-c2ccc3nnn(C4CCCCC4)c3c2)ccn1	–	16.3%	–	–	–
O=C(c1ccc(Nc2cc(-c3ccc4nnn(C5CCCC5)c4c3)ccn2)c(C(F)(F)F)c1)N1CCOCC1	–	47.1%	–	–	–
COc1cc(C(=O)N2CCOCC2)ccc1Nc1cc(-c2ccc3nnn(C4CCCC4)c3c2)ccn1	–	23.5%	–	–	–
O=C(c1ccc(Nc2cc(-c3ccc4nnn(C5CCCCC5)c4c3)ccn2)c(C(F)(F)F)c1)N1CCOCC1	–	0.49%	–	–	–
CC(C)n1nnc2ccc(-c3ccnc(Nc4ccc(C(=O)N5CCOCC5)cc4F)c3)cc21	–	65.3%	–	–	–
O=C(c1ccc(Nc2cc(-c3ccc4nnn(C5CCCCC5)c4c3)ccn2)cc1)N1CCOCC1	–	76%	–	–	–
O=C(c1ccc(Nc2cc(-c3ccc4nnn(C5CCCCC5)c4c3)ccn2)nc1)N1CCOCC1	13.2 nM	98%	–	–	–

Now from value to molecule, other results behind:

IC50 (CDK9/cyclin T1)	inhibition [1]	GI50 (HCT-116 [10])	GI50 (HT-29)	SMILES	further results
1.32 nM	–	80 nM	420 nM	CC(C)n1nnc2ccc(-c3ccnc(Nc4cc(C(=O)N5CCCC5)ccn4)c3)cc21	inhibition at 0.25 h, 10 µM (CYP2C19): 56.1%; half-life at 100 µM [2]: 17.4 min; half-life [3]: > 289 min; remaining at 1 h, 100 µM [4]: 9%; IC50 [5]: 134 nM; IC50 [6]: > 500 nM; CLH [7]: 71.8 µL/min/mg; inhibition at 0.25 h, 10 µM (CYP2D6): 0%; inhibition at 0.25 h, 10 µM (CYP1A2): 12.2%; inhibition at 0.25 h, 10 µM (CYP2C9): 29.6%; IC50 [8]: 11.5 nM; microsomal CLint at 100 µM [9]: 79.8 µL/min/mg; IC50 [11]: > 500 nM; IC50 [12]: 1.3 nM; IC50 [13]: 35.6 nM; inhibition at 0.25 h, 10 µM (CYP3A4): 0%; IC50 [14]: > 500 nM; IC50 [15]: > 500 nM; IC50 [16]: 161 nM
6.62 nM	–	310 nM	350 nM	CC(C)n1nnc2ccc(-c3ccnc(Nc4ccc(C(=O)N5CCCC5)cn4)c3)cc21	–
2.3 nM	–	90 nM	300 nM	CC(C)n1nnc2ccc(-c3ccnc(Nc4ccc(C(=O)N5CCNC(=O)C5)cn4)c3)cc21	–
3.8 nM	–	60 nM	50 nM	CCN1CCN(C(=O)c2ccc(Nc3cc(-c4ccc5nnn(C(C)C)c5c4)ccn3)nc2)CC1	inhibition [17]: Active; inhibition [18]: Active; inhibition (Homo sapiens): Active; inhibition [19]: Active
3.92 nM	–	60 nM	510 nM	CCN1CCN(C(=O)c2ccnc(Nc3cc(-c4ccc5nnn(C(C)C)c5c4)ccn3)c2)CC1	–
3.05 nM	–	280 nM	> 2000 nM	CC(C)n1nnc2ccc(-c3ccnc(Nc4ccc(C(=O)N5CCCN(C)CC5)cn4)c3)cc21	–
9.43 nM	101%	350 nM	220 nM	CC(C)n1nnc2ccc(-c3ccnc(Nc4ccc(C(=O)N5CCOCC5)cn4)c3)cc21	–
4.08 nM	–	330 nM	80 nM	CC(C)N1CCN(C(=O)c2ccc(Nc3cc(-c4ccc5nnn(C(C)C)c5c4)ccn3)nc2)CC1	–
3.37 nM	–	40 nM	410 nM	CC(C)N1CCN(C(=O)c2ccnc(Nc3cc(-c4ccc5nnn(C(C)C)c5c4)ccn3)c2)CC1	inhibition at 0.25 h, 10 µM (CYP2C19): 48.3%; half-life at 100 µM [2]: 7.8 min; half-life [3]: > 289 min; remaining at 1 h, 100 µM [4]: 0.5%; IC50 [5]: 167 nM; IC50 [6]: > 500 nM; CLH [7]: 158.9 µL/min/mg; inhibition at 0.25 h, 10 µM (CYP2D6): 7.1%; inhibition at 0.25 h, 10 µM (CYP1A2): 25.1%; inhibition at 0.25 h, 10 µM (CYP2C9): 56.3%; IC50 [8]: 33.1 nM; microsomal CLint at 100 µM [9]: 177 µL/min/mg; IC50 [11]: > 500 nM; IC50 [12]: 3.3 nM; IC50 [13]: > 500 nM; inhibition at 0.25 h, 10 µM (CYP3A4): 15.7%; IC50 [14]: > 500 nM; IC50 [15]: > 500 nM; IC50 [16]: 125 nM
3.44 nM	–	80 nM	770 nM	CC(C)n1nnc2ccc(-c3ccnc(Nc4cc(C(=O)N5CCN(C)CC5)ccn4)c3)cc21	–
4.39 nM	–	250 nM	230 nM	CC(C)n1nnc2ccc(-c3ccnc(Nc4ccc(C(=O)N5CCN(C)CC5)cn4)c3)cc21	–
